The results in this text go back to paper PMC7566913, “Dual Gene Delivery Reagents From Antiproliferative Alkylphospholipids for Combined Antitumor Therapy” (Frontiers in Chemistry, 2020).

SMILES strings stand for the structures.

The nature of data set [1]: Hydrolytic stability of the APL prodrugs monitored by 31P-NMR. The class given is physicochemical. The source says:
Aqueous formulation of the APL prodrugs produces nanosized lipid aggregates that most likely enter cells through the endocytosis pathway. To produce the expected intrinsic antineoplastic effect, APL-derived phosphotriesters need to be processed into the bioactive parent APLs. The hydrolysis of the prodrugs may be under the control of a chemical stimulus, e.g., a pH decrease as observed during the maturation of endosomes, or of degradation enzymes that massively enter the endosome compartment when continuing to lysosomes. To get some information on the transformation of pro-APLs into APLs, we monitored the hydrolysis of these compounds over time, at pH 7.4 and 4.5, conditions that mimick the extracellular milieu and the environment of the late endosome, respectively. This monitoring was realized using ^31P-NMR spectroscopy, according to a previously reported method (Pierrat et al., [2013b]). Whatever the compound investigated, only one single ^31P resonance did appear during the course of the experiments, corresponding to that of the parent APL. This confirmed that hydrolysis of the pro-APLs selectively occurred at the acetal center. […] As a general trend, hydrolysis of the pro-APLs was […] under neutral conditions (i.e., pH 7.4) than under acidic ones (i.e., pH 4.5). […] Besides, substitution of one hydrogen atom with a methyl group on the acetal bridge accelerated the rate of hydrolysis of the prodrugs. […] Indeed, in biological media, the enzyme-mediated hydrolysis of such compounds can proceed far quicker than “simple” chemical hydrolysis under pH control (Pierrat et al., [2012]). […]

Data set [2] is described as follows: CMC/CAC by pyrene fluorescent probe technique in ultrapure water. The class given is physicochemical. To be noted: pyrene fluorescence. On the procedure: The pro-APL molecules have been specifically engineered so they can be metabolized in situ under a biological stimulus to revert to the parent APL with antiproliferative activity. […] We thus aimed to determine the self-assembly properties of the APL prodrugs. […] Pyrene is a probe which fluorescence is sensitive to the polarity of the solubilizing medium. […] Fluorescence measurements were carried out in ultrapure water and data obtained for the various APLs and their prodrugs are shown in Table 2.
Pro-APLs Self-Assembly Properties
Starting from a lipid film, compounds were […]

For the compound `CCCCCCCCCCCCCCCCCCOP(=O)(OCOC(=O)CCCCCCCCCCC)OC1CC[N+](C)(C)CC1.[Cl-]` (stereo not drawn) [PE12, 4-((((Dodecanoyloxy)methoxy)(octadecyloxy)phosphoryl)oxy)-1,1-dimethylpiperidin-1-ium chloride], the “H120 (hydrolysis rate after a 120-h incubation period)” value came out at 2% in data set [1] (pH 4.5) and 16% in data set [1] (pH 7.4). In addition, the “CMC (APLs) / CAC (pro-APLs)” value in data set [2] turned out to be 2.9 ± 1.0 µM.
